The results in this text go back to patent US6992193B2, “Sulfonylamino phenylacetamide derivatives and methods of their use” (Adolor Corporation, priority 2003, dated 2006).

Molecules are shown by their SMILES. Where a name gives a salt, the structure may show the parent alone. Read-outs that look alike come from different tables or passages of the source.

As a reminder, the Ki is a measure of affinity in units of concentration, obtained from inhibition or displacement. The term IC50 denotes the point on the concentration scale where inhibition reaches its midpoint.

For series [1], the target named is T1, cloned human δ opioid receptor (Homo sapiens, UniProt P41143).
T1 construct: expressed in transfected cells
T1 sequence (P41143 whole entry): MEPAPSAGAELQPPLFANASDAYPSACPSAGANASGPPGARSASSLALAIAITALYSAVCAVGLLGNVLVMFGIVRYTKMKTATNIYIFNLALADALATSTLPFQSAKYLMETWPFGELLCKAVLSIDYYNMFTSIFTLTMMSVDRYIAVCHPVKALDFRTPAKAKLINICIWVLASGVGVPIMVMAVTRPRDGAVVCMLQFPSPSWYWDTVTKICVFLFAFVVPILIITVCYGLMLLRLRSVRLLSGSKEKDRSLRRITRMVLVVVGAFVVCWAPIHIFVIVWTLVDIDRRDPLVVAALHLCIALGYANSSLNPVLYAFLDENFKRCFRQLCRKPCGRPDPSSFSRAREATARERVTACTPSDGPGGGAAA
The series is described as follows: [3H]diprenorphine binding to cloned human δ opioid receptor. The procedure:
(§1) IC50 values were obtained by nonlinear analysis of the data using GraphPad Prism version 3.00 for Windows (GraphPad Software, San Diego). Ki values were obtained by Cheng-Prusoff corrections of IC50 values.
(§2) After dilution in buffer A and homogenization as before, membrane proteins (10-80 μg) in 250 μL were added to mixtures containing test compound and [^3H]diprenorphine (0.5 to 1.0 nM, 40,000 to 50,000 dpm) in 250 μL of buffer A in 96-well deep-well polystyrene titer plates (Beckman). After incubation at room temperature for one hour, the samples were filtered through GF/B filters that had been presoaked in a solution of 0.5% (w/v) polyethylenimine and 0.1% (w/v) bovine serum albumin in water. The filters were rinsed 4 times with 1 mL of cold 50 mM Tris HCl, pH 7.8 and radioactivity remaining on the filters determined by scintillation spectroscopy. Nonspecific binding was determined by the minimum values of the titration curves and was confirmed by separate assay wells containing 10 μM naloxone.
(§3) To determine the equilibrium dissociation constant for the inhibitors (Ki), radioligand bound (cpm) in the presence of various concentrations of test compounds was measured. […] The nonlinear regression fit was performed using the program Prism® (GraphPad Software, San Diego, Calif.). The Ki values were then determined from the […] values by the following equation, [formula] • where [ligand] is the concentration of radioligand; and • Kd is the equilibrium dissociation constant for the radioligand.

Series [2] concerns the target T2, CYP2D6 (Homo sapiens, UniProt P10635).
T2 construct: purchased BD Biosciences
Description: Inhibition of CYP2D6 catalyzed conversion of MAMC to HAMC. Format: in vitro ADME. The procedure: Inhibition of CYP2D6 Catalyzed Conversion of MAMC to HAMC
Microsomes containing baculovirus expressed human recombinant CYP2D6 and MAMC were purchased from BD Biosciences. The method is a modification of the method provided by BD Biosciences.
• Assay Buffer=50 mM KPO4, 15 μg/mL NADP^+, 0.30 mg/mL glucose-6-phosphate, 0.20 mg/mL MgCl2, 0.96 U/mL glucose-6-phosphate dehydrogenase, 2.5 μM MAMC, pH 7.4. • Dilution Buffer=50 mM KPO4, pH 7.4 • Enzyme Buffer=150 mM KPO4, pH 7.4 • Stop Solution=80% acetonitrile, 20% 0.5 M Tris Base Procedure:
The assays were done in black 96 well plates (VWR Cat# 22221-572) and contained: 40 μL assay buffer, 10 μL test compound in dilution buffer and 50 μL of 10-15 pmol/mL CYP2D6 in enzyme buffer. Final concentrations: (100 mM KPO4, pH 7.4, 7.9 μM NADP^+, 0.36 mM glucose-6-phosphate, 0.4 mM MgCl2, 0.38 U/mL glucose-6-phosphate dehydrogenase, 1 μM MAMC (BD Biosciences), 0.5 pmol CYP2D6 (BD Biosciences))
For large experiments, assay buffer and test compound were added using the MiniTrak IV (Packard Biosciences), otherwise they were added using 25-250 μL and 5-100 μL 8 channel electronic pipettors (BioHit). CYP2D6 was added using 25-250 μL 8 channel electronic pipettor.
Titrations are done in either 96 well deep-well plates (Beckman) or 96 well microtiter plates (Costar), an initial dilution in dilution buffer is prepared from stock solutions in DMSO to start either 8 (1:6) or 12 (1:3.15) serial dilutions. For 1:6 dilutions, 50 μL for each dilution is transferred to 250 μL dilution buffer. For 1:3.15 dilutions, 50 μL for each dilution is transferred to 108 μL dilution buffer. Further details on concentrations will be provided in each experiment. Titrations are done using either 25-250 μL 8 channel electronic pipettor, 30-300 μL 12 channel manual pipettor (Spectrum), or the Multiprobe II. For screening, dilution plates are prepared in dilution buffer in 96 well microtiter plates from masterplates in 100% DMSO using the Multiprobe II or MiniTrak IV. After assay buffer and test compound has been added, the plates and the enzyme buffer are prewarmed at 37° C. for 15 minutes. After prewarming, CYP2D6 is added to then enzyme buffer and then added to the assay plate using 25-250 μL 8 channel electronic pipettor and the plates are incubated for 15 minutes at 37° C. After incubation, 50 μL stop solution is added using 25-250 μL 8 channel electronic pipettor. The plates are then counted on the Fusion (Packard Biosciences) for 4 sec/well using and excitation filter of 390 nm and an emission filter of 460 nm, intensity setting of 1, high detector sensitivity.
Non-specific relative fluorescent units (RFU) are determined in the presence of 10 μM quinidine in wells A1, B1, and C1 of each plate and total RFU determined in wells D1, E1, F1 in the absence of test compound. Specific HAMC production is the difference between total and nonspecific. For each compound, a percent inhibition of HAMC production is calculated by: % I=(1−(A/B))*100 • where A=cpm specifically bound for test compound • B=cpm specifically bound in the absence of test compound For experiments where the plates are registered in the biological database, % I is determined automatically by the biological database. Titrations
IC50's are calculated using nonlinear regression to a one-site model using GraphPad Prism or a VB algorithm fitting the data to that equation.

Series [3] addresses CYP3A4 (Homo sapiens, UniProt P08684). The series is described as follows: Inhibition of CYP3A4 conversion of dibenzylfluorescein to fluorescein. The class given is in vitro ADME. The procedure:
(§4) Inhibition of CYP2C9 and CYP3A4
(§5) These assays were carried out as described using CYP2C9 and CYP3A4 conversion of dibenzylfluorescein (DBF) to fluorescein (F).

Series [4] concerns the target T3, cloned human μ opioid receptor (Homo sapiens, UniProt P35372).
T3 construct: expressed in transfected cells
The series is described as follows: [3H]diprenorphine binding to cloned human μ opioid receptor. Here is the method: as §1, §2, §3

The target of series [5] is CYP2C9 (Homo sapiens, UniProt P11712). Description: Inhibition of CYP2C9 conversion of dibenzylfluorescein to fluorescein. The class given is in vitro ADME. Here is the method:
as §4, §5

The test system of series [6] is cytochrome P450 enzymes (CYP2D6, CYP3A4, CYP2C9). Description: Overall evaluation of inhibition of major drug metabolizing hepatic cytochrome P450 enzymes. The class given is in vitro ADME, human.
Where [7] appears, read: MAMC to HAMC conversion, read-out: IC50(CYP2D6).
[8] abbreviates: DBF to fluorescein conversion, read-out: IC50(CYP3A4).
[9] abbreviates: inhibition of [3H]diprenorphine binding, cloned human μ receptor, read-out: Ki(μ).
[10] abbreviates: DBF to fluorescein conversion, read-out: IC50(CYP2C9).
Setting [11] is: inhibition of [3H]diprenorphine binding, cloned human δ receptor, read-out: Ki(δ).

Chain of CYP2C9 (P11712 whole entry): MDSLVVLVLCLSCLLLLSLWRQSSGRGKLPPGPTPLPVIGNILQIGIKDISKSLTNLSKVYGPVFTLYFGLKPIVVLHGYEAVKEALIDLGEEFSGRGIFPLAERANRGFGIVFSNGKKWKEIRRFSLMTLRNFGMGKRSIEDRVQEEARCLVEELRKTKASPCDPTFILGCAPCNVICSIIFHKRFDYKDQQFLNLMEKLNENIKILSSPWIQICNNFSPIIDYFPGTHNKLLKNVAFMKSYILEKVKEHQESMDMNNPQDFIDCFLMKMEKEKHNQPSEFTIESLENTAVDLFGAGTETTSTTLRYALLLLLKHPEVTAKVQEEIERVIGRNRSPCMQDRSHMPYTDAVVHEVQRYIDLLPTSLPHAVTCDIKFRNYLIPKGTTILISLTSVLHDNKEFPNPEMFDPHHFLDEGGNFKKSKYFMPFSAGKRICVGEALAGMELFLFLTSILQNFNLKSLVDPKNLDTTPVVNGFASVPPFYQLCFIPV
Chain of CYP3A4 (P08684 whole entry): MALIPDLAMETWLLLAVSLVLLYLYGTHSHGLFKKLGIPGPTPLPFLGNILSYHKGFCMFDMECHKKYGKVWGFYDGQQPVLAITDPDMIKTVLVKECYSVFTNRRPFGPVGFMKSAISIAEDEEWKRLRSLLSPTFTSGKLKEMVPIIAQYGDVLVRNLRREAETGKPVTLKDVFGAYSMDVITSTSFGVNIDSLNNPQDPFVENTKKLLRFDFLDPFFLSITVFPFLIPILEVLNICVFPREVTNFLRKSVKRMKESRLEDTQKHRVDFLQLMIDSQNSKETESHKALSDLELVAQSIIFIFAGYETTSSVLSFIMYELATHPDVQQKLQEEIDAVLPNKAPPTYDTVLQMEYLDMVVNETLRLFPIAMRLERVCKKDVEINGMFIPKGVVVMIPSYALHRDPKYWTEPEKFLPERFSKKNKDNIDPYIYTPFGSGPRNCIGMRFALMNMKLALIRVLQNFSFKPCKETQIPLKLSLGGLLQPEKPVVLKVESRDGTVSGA
T2 sequence (P10635 whole entry): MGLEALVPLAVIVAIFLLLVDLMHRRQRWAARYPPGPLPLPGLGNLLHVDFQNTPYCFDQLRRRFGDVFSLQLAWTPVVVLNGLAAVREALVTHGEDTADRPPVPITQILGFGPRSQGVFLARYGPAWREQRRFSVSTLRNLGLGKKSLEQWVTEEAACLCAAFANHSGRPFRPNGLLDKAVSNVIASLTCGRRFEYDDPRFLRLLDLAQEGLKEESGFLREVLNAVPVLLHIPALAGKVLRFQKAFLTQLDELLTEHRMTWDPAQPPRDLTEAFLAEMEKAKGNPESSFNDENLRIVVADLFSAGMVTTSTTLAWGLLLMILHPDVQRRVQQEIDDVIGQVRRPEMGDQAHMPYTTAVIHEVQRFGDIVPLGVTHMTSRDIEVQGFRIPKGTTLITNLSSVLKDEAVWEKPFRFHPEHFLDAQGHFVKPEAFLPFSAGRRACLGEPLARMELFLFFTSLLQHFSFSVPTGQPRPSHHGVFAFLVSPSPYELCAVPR
T3 sequence (P35372 whole entry): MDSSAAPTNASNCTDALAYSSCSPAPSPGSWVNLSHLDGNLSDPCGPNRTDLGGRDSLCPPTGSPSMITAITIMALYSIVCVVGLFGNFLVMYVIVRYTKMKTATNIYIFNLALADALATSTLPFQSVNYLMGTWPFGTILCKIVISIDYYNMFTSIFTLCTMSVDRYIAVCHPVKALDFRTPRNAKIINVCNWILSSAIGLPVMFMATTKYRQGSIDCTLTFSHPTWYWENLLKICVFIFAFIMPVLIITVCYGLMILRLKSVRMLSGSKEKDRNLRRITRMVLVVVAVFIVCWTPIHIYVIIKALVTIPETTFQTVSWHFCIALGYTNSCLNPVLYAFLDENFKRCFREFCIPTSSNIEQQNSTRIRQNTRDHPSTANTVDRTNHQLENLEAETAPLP

Regarding `Cc1ccc(S(=O)(=O)NCc2ccc(CC(=O)N(C)[C@H](CN3CC[C@H](O)C3)c3ccccc3)cc2)cc1` [Example 20, N-{2-[3-(S)-hydroxy-pyrrolidin-1-yl]-1-(S)-phenyl-ethyl}-N-methyl-2-{4-[(toluene-4-sulfonylamino)-methyl]-phenyl}-acetamide hydrochloride], the Ki in series [1] came to 28 nM; in series [4] (setting [9]) it was 700 nM. Further, the IC50 in series [2] (setting [7]) was 4900 nM; in series [3] (setting [8]), greater than 10000 nM; in series [5] (setting [10]) it was greater than 10000 nM.
Regarding `CN(C(=O)Cc1ccc(CNS(C)(=O)=O)cc1)[C@H](CN1CC[C@H](O)C1)c1ccccc1` [Example 13, N-{2-[3-(S)-hydroxy-pyrrolidin-1-yl]-1-(S)-phenyl-ethyl}-2-[4-(methanesulfonylamino-methyl)-phenyl]-N-methyl-acetamide hydrochloride], the Ki in series [1] worked out at 190 nM; in series [4], 140 nM. In addition, the IC50 in series [2] (setting [7]) was 9300 nM; in series [3] (setting [8]), greater than 10000 nM; in series [5] (setting [10]) it was greater than 10000 nM.
Regarding `CN(C(=O)Cc1cccc(CNS(C)(=O)=O)c1)[C@H](CN1CCCC1)c1ccccc1` [Example 11, 2-[3-(methanesulfonylamino-methyl)-phenyl]-N-methyl-N-[1-(S)-phenyl-2-pyrrolidin-1-yl-ethyl]-acetamide hydrochloride], the Ki in series [1] (setting [11]) is 1500 nM; in series [4] (setting [9]) it was 1900 nM. Moreover, the IC50 in series [2] (setting [7]) was 1400 nM; in series [3] (setting [8]) it was greater than 10000 nM.
`CCS(=O)(=O)NCc1ccc(CC(=O)N(C)[C@H](CN2CC[C@H](O)C2)c2ccccc2)cc1.Cl` [Example 14, 2-[4-(ethanesulfonylamino-methyl)-phenyl]-N-{2-[3-(S)-hydroxy-pyrrolidin-1-yl]-1-(S)-phenyl-ethyl}-N-methyl-acetamide hydrochloride]: the Ki came out at 510 nM in series [1] (setting [11]) and 1000 nM in series [4]. Moreover, the half-inhibitory concentration (IC50) in series [2] (setting [7]), in series [3] (setting [8]) and in series [5] (setting [10]) was greater than 10000 nM throughout. Besides, in series [6], the “activity toward the cytochrome P450 (summary in words)” value is given as “metabolically stable in regard to their activity toward the cytochrome P450”.
Turning to `CN(C(=O)Cc1ccc(CNS(=O)(=O)c2ccc(F)cc2)cc1)[C@H](CN1CC[C@H](O)C1)c1ccccc1` [Example 19, 2-{4-[(4-fluoro-benzenesulfonylamino)-methyl]-phenyl}-N-{2-[3-(S)-hydroxy-pyrrolidin-1-yl]-1-(S)-phenyl-ethyl}-N-methyl-acetamide hydrochloride], the Ki came out at 64 nM in series [1] and 1100 nM in series [4]. Further, the IC50 is 6300 nM in series [2] (setting [7]), 2900 nM in series [3] (setting [8]) and greater than 10000 nM in series [5] (setting [10]).
Consider `CN(C(=O)Cc1ccc(CNS(=O)(=O)Cc2ccccc2)cc1)[C@H](CN1CC[C@H](O)C1)c1ccccc1` [Example 21, N-{2-[3-(S)-hydroxy-pyrrolidin-1-yl]-1-(S)-phenyl-ethyl}-N-methyl-2-[4-(phenylmethanesulfonylamino-methyl)-phenyl]-acetamide hydrochloride], for which the Ki turned out to be 170 nM in series [1] and 480 nM in series [4] (setting [9]). For the same compound, the figures for the IC50 in series [2] (setting [7]), in series [3] (setting [8]) and in series [5] (setting [10]) were 5300 nM, 5600 nM and greater than 10000 nM, respectively.
With `CC(C)S(=O)(=O)NCc1ccc(CC(=O)N(C)[C@H](CN2CC[C@H](O)C2)c2ccccc2)cc1.Cl` [Example 15, N-{2-[3-(S)-hydroxy-pyrrolidin-1-yl]-1-(S)-phenyl-ethyl}-N-methyl-2-{4-[(propane-2-sulfonylamino)-methyl]-phenyl}-acetamide hydrochloride], the Ki in series [1] (setting [11]) came to 470 nM; in series [4] (setting [9]), 1100 nM. The IC50 in series [2] (setting [7]), in series [3] (setting [8]) and in series [5] (setting [10]) was greater than 10000 nM each time. Besides, the “activity toward the cytochrome P450 (summary in words)” value in series [6] is “metabolically stable in regard to their activity toward the cytochrome P450”.
As to `CN(C(=O)Cc1ccc(CNS(=O)(=O)c2ccccc2)cc1)[C@H](CN1CC[C@H](O)C1)c1ccccc1` [Example 18, 2-[4-(benzenesulfonylamino-methyl)-phenyl]-N-{2-[3-(S)-hydroxy-pyrrolidin-1-yl]-1-(S)-phenyl-ethyl}-N-methyl-acetamide hydrochloride], the Ki came out at 83 nM in series [1] (setting [11]) and 880 nM in series [4] (setting [9]). Further, the IC50 in series [2] (setting [7]) turned out to be 3400 nM; in series [3] (setting [8]), 4300 nM; in series [5] (setting [10]), 8000 nM.
Turning to `CCCCS(=O)(=O)NCc1ccc(CC(=O)N(C)[C@H](CN2CC[C@H](O)C2)c2ccccc2)cc1` [Example 17, 2-{4-[(butane-1-sulfonylamino)-methyl]-phenyl}-N-{2-[3-(S)-hydroxy-pyrrolidin-1-yl]-1-(S)-phenyl-ethyl}-N-methyl-acetamide hydrochloride], the Ki in series [1] is 170 nM; in series [4], 1000 nM. The results for the IC50 in series [2] (setting [7]), in series [3] (setting [8]) and in series [5] (setting [10]) were 7200 nM, 7000 nM and greater than 10000 nM, respectively.
Turning to `CN(C(=O)Cc1ccc(CNS(C)(=O)=O)cc1)[C@H](CN1CCCC1)c1ccccc1` [Example 12, 2-[4-(methanesulfonylamino-methyl)-phenyl]-N-methyl-N-[1-(S)-phenyl-2-pyrrolidin-1-yl-ethyl]-acetamide], the Ki in series [1] was greater than 3000 nM; in series [4], 470 nM. Also, the results for the IC50 in series [2], in series [3] and in series [5] were 12000 nM, greater than 10000 nM and greater than 10000 nM, respectively.
In the case of `CN(C(=O)Cc1ccc(NS(C)(=O)=O)cc1)[C@H](CN1CC[C@H](O)C1)c1ccccc1` [Example 25, N-{2-[3-(S)-hydroxy-pyrrolidin-1-yl]-1-(S)-phenyl-ethyl}-2-(4-methanesulfonylamino-phenyl)-N-methyl-acetamide hydrochloride], the results for the Ki in series [1] and in series [4] were 180 nM and 100 nM, respectively. Further, the IC50 in series [2] (setting [7]) was 4900 nM; in series [3] (setting [8]) it was greater than 10000 nM.
